The source of these data is patent US12336981B2, “Compounds and compositions for the inhibition of NAMPT” (Valo Health, Inc., priority 2010, dated 2025).

For assay [1], the target named is T1, NAMPT (Homo sapiens, UniProt P43490).
T1 construct: His tag; host or cells: E. coli
The assay can be described thus: Biochemical inhibition assay: NAMPT enzymatic reaction, NMN quantified by mass spectrometry. The conditions noted are these: NAMPT enzymatic assay; read-out: Biochem IC50. In outline:
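Inhibition of E. coli-expressed His-tagged human NAMPT, measured as NMN formation by mass spectrometry after a 30 min room-temperature reaction containing 1 μM NAM, 100 μM PRPP and 2.5 mM ATP.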

In assay [2] the test system is A2780 cells. The assay is described as follows: In-vitro cell proliferation assay (SRB), A2780 cells. The format is cell-based. The note with it: Homo sapiens, A2780, 72 h, A2780 cells, 72 hours, SRB; read-out: A2780 IC50. Summed up: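 Cells were plated overnight at 37° C., 5% CO2, then exposed to serially diluted compounds (0.1% DMSO final) for 72 hours. Viable cells were measured by sulforhodamine B staining after TCA fixation, read at 570 nm; media-only background was subtracted before % inhibition was calculated.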

T1 sequence (P43490 whole entry): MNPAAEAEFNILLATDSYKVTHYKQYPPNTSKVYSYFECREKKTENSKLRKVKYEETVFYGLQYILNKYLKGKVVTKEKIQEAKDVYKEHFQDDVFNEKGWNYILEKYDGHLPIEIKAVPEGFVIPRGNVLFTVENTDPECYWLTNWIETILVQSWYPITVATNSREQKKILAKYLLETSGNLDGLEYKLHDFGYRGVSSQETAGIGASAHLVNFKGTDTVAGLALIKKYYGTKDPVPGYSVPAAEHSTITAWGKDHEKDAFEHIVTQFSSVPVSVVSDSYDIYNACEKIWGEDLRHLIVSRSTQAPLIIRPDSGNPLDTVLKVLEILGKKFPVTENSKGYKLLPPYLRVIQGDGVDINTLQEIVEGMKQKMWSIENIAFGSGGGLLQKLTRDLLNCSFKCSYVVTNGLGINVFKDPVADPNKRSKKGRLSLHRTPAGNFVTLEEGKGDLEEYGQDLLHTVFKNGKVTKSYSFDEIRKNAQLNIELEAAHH

The term IC50 denotes the midpoint of a concentration-inhibition curve. In the case of `O=C(NCc1ccc(S(=O)(=O)c2cncc(N3CCCC3)c2)cc1)c1cc2ccncc2o1` [N-({4-[5-(pyrrolidin-1-yl)pyridine-3-sulfonyl]phenyl}methyl)furo[2,3-c]pyridine-2-carboxamide], the half-inhibitory concentration (IC50) in assay [1] is 22.8 nM; in assay [2] it was 4.9 nM.

For the molecule `O=C(NCc1ccc(S(=O)(=O)c2cncc(N3CCCC3)c2)cc1)c1ccc2nccn2c1` [N-({4-[5-(pyrrolidin-1-yl)pyridine-3-sulfonyl]phenyl}methyl)imidazo[1,2-a]pyridine-6-carboxamide], the IC50 is 4 nM in assay [1] and 0.5 nM in assay [2].

Consider `O=C(NCc1ccc(S(=O)(=O)c2ccc(C(F)(F)F)cn2)cc1)c1cnc2[nH]ncc2c1` [N-({4-[5-(trifluoromethyl)pyridine-2-sulfonyl]phenyl}methyl)-1H-pyrazolo[3,4-b]pyridine-5-carboxamide], for which the half-maximal inhibitory concentration (IC50) in assay [1] and in assay [2] was 100 to 1000 nM each time.

For `O=C(NCc1ccc(S(=O)(=O)c2ccc(C(F)(F)F)cn2)cc1)c1cc2ccncc2o1` [N-({4-[5-(trifluoromethyl)pyridine-2-sulfonyl]phenyl}methyl)furo[2,3-c]pyridine-2-carboxamide], the figures for the concentration for half-maximal inhibition (IC50) in assay [1] and in assay [2] were 37 nM and 100 to 1000 nM, respectively.

As for `O=C(NCc1ccc(S(=O)(=O)c2ccc(C(F)(F)F)cn2)cc1)c1ccc2nccn2c1` [N-({4-[5-(trifluoromethyl)pyridine-2-sulfonyl]phenyl}methyl)imidazo[1,2-a]pyridine-6-carboxamide], the IC50 in assay [1] is 46.3 nM; in assay [2] it was 32.6 nM.

Consider `O=C(NCc1ccc(S(=O)(=O)c2ccc(C(F)(F)F)cn2)cc1)c1cnc2nccn2c1` [N-({4-[5-(trifluoromethyl)pyridine-2-sulfonyl]phenyl}methyl)imidazo[1,2-a]pyrimidine-6-carboxamide], for which the concentration for half-maximal inhibition (IC50) in assay [1] was found to be 5.9 nM; in assay [2], 70.8 nM.

`O=C(NCc1ccc(S(=O)(=O)c2ccc(C(F)(F)F)cn2)cc1)c1cc2ccncc2s1` [N-({4-[5-(trifluoromethyl)pyridine-2-sulfonyl]phenyl}methyl)thieno[2,3-c]pyridine-2-carboxamide]: the IC50 in assay [1] was 23.5 nM; in assay [2], 100 to 1000 nM.

Turning to `O=C(NCc1ccc(S(=O)(=O)c2cncc(C(F)(F)F)c2)cc1)c1cnc2[nH]ncc2c1` [N-({4-[5-(trifluoromethyl)pyridine-3-sulfonyl]phenyl}methyl)-1H-pyrazolo[3,4-b]pyridine-5-carboxamide], the IC50 in assay [1] is 11 nM; in assay [2], 4 nM.

Consider `O=C(NCc1ccc(S(=O)(=O)c2cncc(C(F)(F)F)c2)cc1)c1ccc2nccn2c1` [N-({4-[5-(trifluoromethyl)pyridine-3-sulfonyl]phenyl}methyl)imidazo[1,2-a]pyridine-6-carboxamide], for which the IC50 is 9 nM in assay [1] and 1.3 nM in assay [2].

Turning to `O=C(NCc1ccc(S(=O)(=O)c2ccc(-n3cccn3)nc2)cc1)c1ccc2nccn2c1` [N-({4-[6-(1H-pyrazol-1-yl)pyridine-3-sulfonyl]phenyl}methyl)imidazo[1,2-a]pyridine-6-carboxamide], the IC50 was 4 nM in assay [1] and 1.9 nM in assay [2].

On to `O=C(NCc1ccc(S(=O)(=O)c2cccc(-c3ccc(F)c(F)c3)n2)cc1)c1cnc2[nH]ncc2c1` [N-({4-[6-(3,4-difluorophenyl)pyridine-2-sulfonyl]phenyl}methyl)-1H-pyrazolo[3,4-b]pyridine-5-carboxamide], for which the IC50 in assay [1] was determined as 17.8 nM; in assay [2], 41 nM.

With `O=C(NCc1ccc(S(=O)(=O)c2cccc(-c3ccc(F)c(F)c3)n2)cc1)c1cc2cnccc2[nH]1` [N-({4-[6-(3,4-difluorophenyl)pyridine-2-sulfonyl]phenyl}methyl)-1H-pyrrolo[3,2-c]pyridine-2-carboxamide], the values for the IC50 in assay [1] and in assay [2] were 16 nM and 12.7 nM, respectively.

Consider `O=C(NCc1ccc(S(=O)(=O)c2cccc(-c3ccc(F)c(F)c3)n2)cc1)c1cc2ccncc2o1` [N-({4-[6-(3,4-difluorophenyl)pyridine-2-sulfonyl]phenyl}methyl)furo[2,3-c]pyridine-2-carboxamide], for which the IC50 in assay [1] stood at 5 nM; in assay [2], 42.7 nM.
